Test results as given in patent US20030032003A1, “IN VIVO SELECTION” (priority 2000, published 2003).
Read-outs that look alike come from different tables or passages of the source. Marks after values point to notes of the source that are not given here.

What was measured:
[1] = system: Hprt +/+ bone marrow of recipient mice; experiment: Bone marrow replacement, Southern blot analysis of Y (donor) DNA; type: in vivo, mouse
From the text: The replacement of Hprt positive bone marrow with Hprt deficient bone marrow was examined by Southern blot analysis. Since recipients animals were females and donor bone marrow was of male origin, we have determined the fraction of cells containing chromosome (Y) in hematopoetic organs (bone marrow, spleen, thymus) and peripheral tissue (tail) in recipient animals. The Y chromosome was detected in 6TG treated and control animals.
Next Applicants tested whether “in vivo selection” without whole body irradiation can lead to complete bone marrow replacement. The wild type recipient mice were pretreated with 6TG (10 mg/kg twice in 48 hrs interval) or with sterile PBS and the Hprt deficient bone marrow was transplanted. The animals in the experimental group were 6TG pretreated followed with the 6TG in vivo selection protocol (described herein above). The control animals (6TG or PBS pretreated) were treated with sterile PBS buffer instead of 6TG. The degree of bone marrow replacement was evaluated by Southern blot analysis in hematopoetic tissues (bone marrow, spleen, thymus) and blood at the end of the 7th week post transplantation.

[2] = system: Hprt+/+ mice, recipients of Hprt−/− bone marrow and non-recipient controls
Protocol: Recipient Hprt+/+ female mice were irradiated with 950 cGy of X-rays 24 hours before transplantation.
Briefly, bone marrow was flushed from femora and tibiae with 2 ml of Dulbecco's modified Eagle medium (D-MEM) supplemented with 10% of FBS and 100 units/ml penicillin, 100 mg/ml streptomycin. The isolated cells from the donor mouse were washed with PBS and injected into the tail vein of female Hprt +/+ recipients.
6TG (2-amino-6-mercaptopurine Sigma) was suspended in sterile PBS with a final concentration of 0.5 mg/ml prior to each i.p. application. All mice, recipients of bone marrow transplant and non-recipient controls, were treated with the same 6TG dose regimen. All mice were treated one hour after transplantation of recipients with an initial dose of 6TG at 10 mg/kg body weight. After 7 days the animals were treated with 4 doses of 5 mg/kg b.w. in 48 hrs intervals and followed with 5 days of recovery period.
This regimen was repeated 2 times with doses 5 mg/kg and 3 times with doses of 10 mg/kg with 5 days recovery periods in between treatments. Another control group of transplanted animals was treated with the same amount of sterile PBS.

Hprt −/− mice = experiment: Histopathological analysis of mouse tissues after 6TG
[3] = Hprt −/−, 6TG lethal 1148-2561 mg/kg, 3 mice
[4] = Hprt −/−, 6TG sublethal 25-720 mg/kg, 11 mice

## Nc1nc(S)c2[nH]cnc2n1 [6TG, 2-amino-6-merkaptopurine]
[1]; 6TG in vivo selection protocol, whether or not irradiation was used, end of 7th week post transplantation
  bone marrow replacement: 100%
[1]; irradiated recipients, 6TG selection in comparison to control animals
  engraftment of Hprt deficient bone marrow cells (containing Y chomosome): significantly increased engraftment
[2]; 6TG treated bone marrow (BM) recipients
  toxic effect of 6TG: did not show any apparent toxic effect
[2]; 6TG treated bone marrow recipients, first week after transplantation
  body weight decrease: about 10%
[2]; Bone marrow recipients +6TG, week 1
  Body weight: 91
[2]; Bone marrow recipients +6TG, week 2
  Body weight: 89
[2]; Bone marrow recipients +6TG, week 3
  Body weight: 90
[2]; Bone marrow recipients +6TG, week 4
  Body weight: 90
[2]; Bone marrow recipients +6TG, week 5
  Body weight: 88
[2]; Bone marrow recipients +6TG, week 6
  Body weight: 93
[2]; Controls (non-recipients) +6TG, week 1
  Body weight: 99
[2]; Controls (non-recipients) +6TG, week 2
  Body weight: 100
[2]; Controls (non-recipients) +6TG, week 3, these mice died
  Body weight: 86*
[2]; Controls (non-recipients) +6TG, week 4, these mice died
  Body weight: 79*
[2]; non-recipient controls, during 3 weeks of 6TG treatment
  loss of body weight: 25%
Hprt −/− mice; Hprt deficient animals
  hyperplasia dose below doses causing toxicity: 40 fold
Hprt −/− mice; Hprt deficient mice
  dose at which liver necrosis appears: ≥ 507 mg/kg
Hprt −/− mice; Hprt −/−, 25 mg/kg i.p.
  Kidneys Glomerulopathy, severity grade: 1
  Kidneys Intersticial inflamation, severity grade: 2
  Liver Centrilobular hypertrophy, severity grade: 3
Hprt −/− mice; Hprt −/−, 50 mg/kg i.p.
  Bone marrow Hypercellular, severity grade: 1.0 ± 1.0
  Liver Centrilobular hypertrophy, severity grade: 1.5 ± 0.5
  Liver Fatty change, severity grade: 1.0 ± 1.0
Hprt −/− mice; Hprt −/−, 100 mg/kg i.p.
  Bone marrow Hypercellular, severity grade: 1
  Liver Centrilobular hypertrophy, severity grade: 2
  Liver Extramedullary hematopoesis, severity grade: 1
  Liver Fatty change, severity grade: 1
Hprt −/− mice; Hprt −/−, 150 mg/kg i.p.
  Bone marrow Hypercellular, severity grade: 2
  Kidneys Glomerulopathy, severity grade: 3
  Kidneys Intersticial inflamation, severity grade: 2
  Kidneys Tubule basophilia, severity grade: 1
  Kidneys Tubule dilatation, severity grade: 2
  Liver Centrilobular hypertrophy, severity grade: 2
  Liver Extramedullary hematopoesis, severity grade: 1
  Liver Fatty change, severity grade: 3
Hprt −/− mice; Hprt −/−, 225 mg/kg i.p.
  Bone marrow Hypercellular, severity grade: 2
  Kidneys Glomerulopathy, severity grade: 2
  Kidneys Intersticial inflamation, severity grade: 2
  Kidneys Tubule basophilia, severity grade: 2
  Kidneys Tubule dilatation, severity grade: 2
  Liver Extramedullary hematopoesis, severity grade: 1
  Liver Fatty change, severity grade: 2
Hprt −/− mice; Hprt −/−, 338 mg/kg i.p.
  Bone marrow Hypercellular, severity grade: 1
  Kidneys Glomerulopathy, severity grade: 1
  Kidneys Intersticial inflamation, severity grade: 2
  Kidneys Tubule basophilia, severity grade: 1
  Kidneys Tubule dilatation, severity grade: 1
  Liver Centrilobular hypertrophy, severity grade: 1
  Liver Extramedullary hematopoesis, severity grade: 1
  Liver Fatty change, severity grade: 2
  Spleen Lymphoid depletion, severity grade: 1
Hprt −/− mice; Hprt −/−, 507 mg/kg i.p.
  Bone marrow Hypercellular, severity grade: 1.5 ± 0.5
  Kidneys Tubule basophilia, severity grade: 1.5 ± 0.5
  Kidneys Tubule dilatation, severity grade: 0.5 ± 0.5
  Liver Atrophy necrosis, severity grade: 1.0 ± 0.0
  Liver Centrilobular hypertrophy, severity grade: 2.0 ± 0.0
  Liver Extramedullary hematopoesis, severity grade: 1.5 ± 0.5
  Liver Fatty change, severity grade: 2.5 ± 0.5
Hprt −/− mice; Hprt −/−, 720 mg/kg i.p.
  Bone marrow Hypercellular, severity grade: 1.5 ± 0.5
  Kidneys Glomerulopathy, severity grade: 0.5 ± 0.5
  Kidneys Intersticial inflamation, severity grade: 1.5 ± 0.5
  Kidneys Tubule basophilia, severity grade: 1.5 ± 0.5
  Kidneys Tubule dilatation, severity grade: 1.5 ± 0.5
  Liver Atrophy necrosis, severity grade: 0.5 ± 0.5
  Liver Centrilobular hypertrophy, severity grade: 1.0 ± 0.0
  Liver Extramedullary hematopoesis, severity grade: 1.0 ± 0.0
  Liver Fatty change, severity grade: 1.5 ± 0.5
  Spleen Lymphoid depletion, severity grade: 0.5 ± 0.5
Hprt −/− mice; [3]
  Bone marrow Depletion, average of lesion severity grade: 2.3 ± 0.6
  Bone marrow Necrosis, average of lesion severity grade: 3.0 ± 0.0
  Gastric epithelium Atrophy, average of lesion severity grade: 0.6 ± 0.6
  Intestinal epithelium Atrophy, average of lesion severity grade: 0.6 ± 0.6
  Kidneys Tubule dilatation, average of lesion severity grade: 0.3 ± 0.6
  Liver Atrophy necrosis, average of lesion severity grade: 1.3 ± 0.6
  Liver Centrilobular hypertrophy, average of lesion severity grade: 1.0 ± 1.7
  Liver Extramedullary hematopoesis, average of lesion severity grade: 0.3 ± 0.6
  Liver Fatty change, average of lesion severity grade: 3.3 ± 0.6
  Spleen Lymphoid depletion, average of lesion severity grade: 3.7 ± 0.6
  Spleen Necrosis, average of lesion severity grade: 2.0 ± 1.7
Hprt −/− mice; [4]
  Bone marrow Hypercellular, average of lesion severity grade: 1.2 ± 0.6
  Kidneys Glomerulopathy, average of lesion severity grade: 1.0 ± 1.0
  Kidneys Intersticial inflamation, average of lesion severity grade: 1.5 ± 1.0
  Kidneys Tubule basophilia, average of lesion severity grade: 0.9 ± 0.8
  Kidneys Tubule dilatation, average of lesion severity grade: 0.9 ± 0.9
  Liver Atrophy necrosis, average of lesion severity grade: 0.2 ± 0.4
  Liver Centrilobular hypertrophy, average of lesion severity grade: 1.2 ± 0.8
  Liver Extramedullary hematopoesis, average of lesion severity grade: 0.8 ± 0.5
  Liver Fatty change, average of lesion severity grade: 1.6 ± 0.9
  Spleen Lymphoid depletion, average of lesion severity grade: 02 ± 0.4
